The values below come from EP2014284A1, “Pharmaceutical compositions and uses” (NOVARTIS AG, priority 2007, dated 2009).

For the data set, the system named is hypertensive OA patients. The source says:
Method: A 4-week, multicenter, randomized, double-blind, double-dummy, parallel group study of hypertensive OA patients aged ≥50 years (office BP ≤140/90 mmHg) on stable antihypertensive treatment. […] The primary outcome measure was the change from baseline (BL) at Week 4 in 24-hour mean ambulatory systolic BP (MASBP) in the intent-to-treat (ITT) population using ANCOVA. The secondary analyses included 24-hour mean ambulatory diastolic BP (MADBP […]. In addition, a post-hoc subgroup analysis was performed to evaluate the primary and secondary analysis at Week 4 (using ANCOVA) for patients exclusively on ACE inhibitors as antihypertensive drug.

The mark [1] stands for this setting: change from baseline, lumiracoxib (n=140) vs ibuprofen (n=132), patients exclusively on ACE-inhibitors, p<0.001.

Marks after values point to notes of the source that are not given here.

Consider `CC(C)Cc1ccc(C(C)C(=O)O)cc1` (stereo not shown) [ibuprofen], for which the “increase in MASBP” value (change from BL at Week 4, 24-hour MASBP, ibuprofen 600 mg tid) amounted to 2.2 mmHg.

Turning to `Cc1ccc(Nc2c(F)cccc2Cl)c(CC(=O)O)c1` [lumiracoxib, 5-methyl-2-(2'-chloro-6'-fluoroanilino)phenylacetic acid], where the note is “change from BL at Week 4, 24-hour MASBP, lumiracoxib 100 mg od”, the “decrease in MASBP” value is 2.7 mmHg. For the same compound, under setting [1], the “24 h MADBP Difference in LSM (95% CI)” value is reported as -3.9 (-5.1,-2.7)* and the “24 h MASBP Difference in LSM (95% CI)” value is on record as -7.5 (-9.6, -5.5)*. Further, under “human, in vivo, 4 weeks”, the “Clinically relevant increase (>= 5 mm Hg increase in 24 h MADBP and/or >= 10 mm Hg increase in 24h MASBP), number of patients” value is on record as 13 patients and the “Clinically relevant increase (>= 5 mm Hg increase in 24 h MADBP and/or >= 10 mm Hg increase in 24h MASBP), share of patients” value turned out to be 9.3%. Moreover, under “lumiracoxib 100 mg od vs ibuprofen 600 mg tid, Week 4, [95% CI: -2.7, -1.3], p<0.001”, the “24-hour MADBP, estimated treatment difference” value is -2 mmHg.
